Assay results published in ChEMBL document CHEMBL1201862, “PubChem BioAssay data set” (2004).
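Assay format: 96-well plates, 48-hour exposure. Abbreviation: GI50, concentration required for 50% inhibition of growth.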 Calls of active or inactive are those of the source. Cut-off read from the data, not from the text of the source: active = GI50 up to about 1.1 µM and inactive = higher.

Tests used:
Assay in all cases: DTP human tumour cell line panel, 48 h
SF-268 = tested on: SF-268
NCI-H522 = tested on: NCI-H522
SK-MEL-28 = tested on: SK-MEL-28
HCT-15 = tested on: HCT-15
SF-539 = tested on: SF-539
RXF 393 = tested on: RXF 393
COLO 205 = tested on: COLO 205
SW-620 = tested on: SW-620
786-0 = tested on: 786-0
EKVX = tested on: EKVX
MOLT-4 = tested on: MOLT-4
UACC-257 = tested on: UACC-257
OVCAR-5 = tested on: OVCAR-5
M14 = tested on: M14
SNB-75 = tested on: SNB-75
HOP-92 = tested on: HOP-92
SR = tested on: SR

Compound	GI50 (SF-268)	GI50 (NCI-H522)	GI50 (SK-MEL-28)	GI50 (HCT-15) [µM]	GI50 (SF-539)	GI50 (RXF 393)	GI50 (COLO 205)	GI50 (SW-620)	GI50 (786-0)	GI50 (EKVX)	GI50 (MOLT-4)	GI50 (UACC-257)	GI50 (OVCAR-5)	GI50 (M14)	GI50 (SNB-75)	GI50 (HOP-92)	GI50 (SR)
Cc1nc2ccccc2c(=O)n1/N=C(\N=N\c1ccc(Cl)cc1)c1ccc(N(C)C)cc1	32.7 µM (inactive)	38.7 µM (inactive)	26.2 µM (inactive)	> 100	> 100 µM (inactive)	80.4 µM (inactive)	> 100 µM (inactive)	> 100 µM (inactive)	> 100 µM (inactive)	> 100 µM (inactive)	61.1 µM (inactive)						
Nc1c(C(=O)Nc2ccccc2)[n+]([O-])c2ccccc2[n+]1[O-]	25.1 µM (inactive)	2.09 µM (inactive)	17.8 µM (inactive)	13.1	17.9 µM (inactive)		15.5 µM (inactive)	15.2 µM (inactive)	13.6 µM (inactive)	25.9 µM (inactive)	18.7 µM (inactive)	17.9 µM (inactive)	22.5 µM (inactive)	15.6 µM (inactive)	13 µM (inactive)	16.7 µM (inactive)	
O=C(Cn1ccnc1[N+](=O)[O-])NCc1ccc(F)cc1	> 100 µM (inactive)	> 100 µM (inactive)	> 100 µM (inactive)	> 100	> 100 µM (inactive)	> 100 µM (inactive)	> 100 µM (inactive)	> 100 µM (inactive)	> 100 µM (inactive)	> 100 µM (inactive)	> 100 µM (inactive)	> 100 µM (inactive)	> 100 µM (inactive)	> 100 µM (inactive)	68.9 µM (inactive)	> 100 µM (inactive)	
Cc1cc(N(CCC#N)CCC#N)ccc1/C=C(/NC(=O)/C=C/c1ccccc1)C(N)=O	> 100 µM (inactive)	13.8 µM (inactive)	> 100 µM (inactive)	> 100	> 100 µM (inactive)	4.19 µM (inactive)	> 100 µM (inactive)	> 100 µM (inactive)	> 100 µM (inactive)	> 100 µM (inactive)	> 100 µM (inactive)	> 100 µM (inactive)	> 100 µM (inactive)	> 100 µM (inactive)	> 100 µM (inactive)		
CC1=NN(C(=O)Nc2ccc(Cl)cc2)C(=O)C2CCC(=O)N12 (stereo not drawn)	45.3 µM (inactive)		> 100 µM (inactive)	1.76	> 100 µM (inactive)	> 100 µM (inactive)	> 100 µM (inactive)	> 100 µM (inactive)	88.7 µM (inactive)	> 100 µM (inactive)	53 µM (inactive)	49.3 µM (inactive)		> 100 µM (inactive)	> 100 µM (inactive)	> 100 µM (inactive)	> 100 µM (inactive)
C=CC(=O)Nc1ccccc1CC(c1c[nH]c2ccccc12)c1c[nH]c2ccccc12	24.1 µM (inactive)	22.8 µM (inactive)	17.8 µM (inactive)	18.7	21.3 µM (inactive)	> 10 µM (inactive)	16.7 µM (inactive)	20.2 µM (inactive)	18.8 µM (inactive)	17.5 µM (inactive)	19.5 µM (inactive)	18.9 µM (inactive)		16.3 µM (inactive)	14.1 µM (inactive)		
CC(=O)OC1C2CCC1C1C2C2(Cl)C(Cl)=C(Cl)C1(Cl)C2(Cl)Cl (stereo not drawn)	17.7 µM (inactive)	12.3 µM (inactive)	18.2 µM (inactive)		16.6 µM (inactive)	15.1 µM (inactive)	15 µM (inactive)	14.5 µM (inactive)	14.1 µM (inactive)	11.3 µM (inactive)	11 µM (inactive)	13.2 µM (inactive)	11.1 µM (inactive)	12.4 µM (inactive)	14.7 µM (inactive)	11.2 µM (inactive)	9.95 µM (inactive)
CP1(=O)CCCCC1	> 100 µM (inactive)		> 100 µM (inactive)	> 100	> 100 µM (inactive)	> 100 µM (inactive)	> 100 µM (inactive)	> 100 µM (inactive)	> 100 µM (inactive)	> 100 µM (inactive)	> 100 µM (inactive)	> 100 µM (inactive)	> 100 µM (inactive)	> 100 µM (inactive)	> 100 µM (inactive)	> 100 µM (inactive)	> 100 µM (inactive)
OCC(O)C(O)C(O)c1nn(-c2ccccc2)c2nc3cc(Cl)c(Cl)cc3nc12 (stereo not drawn)	55.1 µM (inactive)	27.5 µM (inactive)	48 µM (inactive)		18.6 µM (inactive)	19.9 µM (inactive)	44.1 µM (inactive)	88.9 µM (inactive)	32 µM (inactive)	51.6 µM (inactive)	24.5 µM (inactive)	63.1 µM (inactive)	28.6 µM (inactive)	17.7 µM (inactive)	20.3 µM (inactive)		33.9 µM (inactive)
